Laboratory results published in US10150771B2, “Triazolopyrazinones as PDE1 inhibitors” (H. Lundbeck A/S, priority 2014, dated 2018).

Legend:
Format in all cases: biochemical
[1] = target: PDE1B (Homo sapiens, UniProt Q01064); assay: PDE1 inhibition assay (SPA), PDE1B; conditions: for IC50: concentration required to reach 50% inhibition of the enzyme, 15 nM tritium labelled cAMP, read-out: PDE1B inhibition (nM or %): IC50
Description: (§1) PDE1 Inhibition Assay PDE1A, PDE1B and PDE1C assays were performed as follows: the assays were performed in 60 μL samples containing a fixed amount of the PDE1 enzym1 (sufficient to convert 20-25% of the cyclic nucleotide substrate), a buffer (50 mM HEPES pH 7.6; 10 mM MgCl2; 0.02% Tween20), 0.1 mg/ml BSA, 15 nM tritium labelled cAMP and varying amounts of inhibitors. Reactions were initiated by addition of the cyclic nucleotide substrate, and reactions were allowed to proceed for 1 h at room temperature before being terminated through mixing with 20 μL (0.2 mg) yttrium silicate SPA beads (PerkinElmer). The beads were allowed to settle for 1 h in the dark before the plates were counted in a Wallac 1450 Microbeta counter. The measured signals were converted to activity relative to an uninhibited control (100%) and IC50 values were calculated using XIFit (model 205, IDBS).

[2] = target: PDE1C (Homo sapiens, UniProt Q14123); assay: PDE1 inhibition assay (SPA), PDE1C; conditions: for IC50: concentration required to reach 50% inhibition of the enzyme, 15 nM tritium labelled cAMP, read-out: PDE1C inhibition (nM or %): IC50
Description: as §1

[3] = target: PDE1A (Homo sapiens, UniProt P54750); assay: PDE1 inhibition assay (SPA), PDE1A; conditions: for IC50: concentration required to reach 50% inhibition of the enzyme, 15 nM tritium labelled cAMP, read-out: PDE1A inhibition (nM or %): IC50
Description: as §1

Chain of PDE1B (Q01064 whole entry): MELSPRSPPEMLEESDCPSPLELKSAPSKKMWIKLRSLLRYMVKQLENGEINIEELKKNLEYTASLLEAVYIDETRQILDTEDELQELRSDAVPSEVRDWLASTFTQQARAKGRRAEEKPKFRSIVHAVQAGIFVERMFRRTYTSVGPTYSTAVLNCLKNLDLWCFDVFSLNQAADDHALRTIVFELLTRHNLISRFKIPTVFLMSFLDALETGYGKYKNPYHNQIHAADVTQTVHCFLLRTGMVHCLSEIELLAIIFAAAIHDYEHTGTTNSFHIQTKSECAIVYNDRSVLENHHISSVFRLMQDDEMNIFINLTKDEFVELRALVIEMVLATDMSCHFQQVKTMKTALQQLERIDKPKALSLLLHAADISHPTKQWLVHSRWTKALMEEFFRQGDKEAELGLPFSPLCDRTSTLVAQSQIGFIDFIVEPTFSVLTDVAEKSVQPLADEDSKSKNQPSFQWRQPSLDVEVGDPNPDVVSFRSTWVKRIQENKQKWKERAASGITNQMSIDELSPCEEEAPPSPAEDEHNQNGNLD
Chain of PDE1A (P54750 whole entry): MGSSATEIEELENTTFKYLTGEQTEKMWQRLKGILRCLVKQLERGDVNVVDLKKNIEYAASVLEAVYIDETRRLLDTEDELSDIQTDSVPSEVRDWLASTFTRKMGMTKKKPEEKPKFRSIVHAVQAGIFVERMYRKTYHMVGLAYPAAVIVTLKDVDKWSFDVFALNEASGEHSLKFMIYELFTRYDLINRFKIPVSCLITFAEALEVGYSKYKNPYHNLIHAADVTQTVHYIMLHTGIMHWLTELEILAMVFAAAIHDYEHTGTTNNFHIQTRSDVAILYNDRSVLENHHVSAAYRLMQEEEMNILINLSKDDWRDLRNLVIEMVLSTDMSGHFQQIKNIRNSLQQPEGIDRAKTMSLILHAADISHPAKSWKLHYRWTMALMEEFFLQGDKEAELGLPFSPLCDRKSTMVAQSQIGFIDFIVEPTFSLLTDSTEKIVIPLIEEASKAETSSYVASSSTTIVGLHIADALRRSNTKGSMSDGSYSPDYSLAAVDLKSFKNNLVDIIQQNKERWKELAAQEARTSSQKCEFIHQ
Chain of PDE1C (Q14123 whole entry): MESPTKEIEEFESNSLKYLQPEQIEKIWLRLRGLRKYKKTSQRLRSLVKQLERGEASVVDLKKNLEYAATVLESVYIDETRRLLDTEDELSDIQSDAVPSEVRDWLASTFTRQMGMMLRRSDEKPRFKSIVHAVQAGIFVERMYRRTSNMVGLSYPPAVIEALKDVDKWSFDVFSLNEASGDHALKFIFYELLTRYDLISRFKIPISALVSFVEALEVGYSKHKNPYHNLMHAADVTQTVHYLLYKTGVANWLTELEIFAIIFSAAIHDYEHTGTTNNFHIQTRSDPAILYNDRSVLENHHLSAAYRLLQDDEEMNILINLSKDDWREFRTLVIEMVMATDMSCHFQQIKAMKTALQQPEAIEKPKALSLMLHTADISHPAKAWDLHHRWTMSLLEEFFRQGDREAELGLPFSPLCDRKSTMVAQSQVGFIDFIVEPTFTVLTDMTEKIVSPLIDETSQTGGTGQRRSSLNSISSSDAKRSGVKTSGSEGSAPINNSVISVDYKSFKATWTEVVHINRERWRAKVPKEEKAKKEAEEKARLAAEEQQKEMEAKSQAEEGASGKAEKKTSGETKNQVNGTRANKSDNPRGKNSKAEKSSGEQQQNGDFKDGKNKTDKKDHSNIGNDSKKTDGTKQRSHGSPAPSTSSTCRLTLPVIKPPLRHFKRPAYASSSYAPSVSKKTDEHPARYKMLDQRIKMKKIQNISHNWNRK

CCCc1nnc2c(=O)n(Cc3ccc(Cl)cc3)ccn12 [7-(4-Chlorobenzyl)-3-propyl-[1,2,4]triazolo[4,3-a]pyrazin-8(7H)-one]
IC50 [1]: 83 nM | IC50 [2]: 170 nM | IC50 [3]: 620 nM

CCCc1nnc2c(=O)n(Cc3ccc(F)cc3)ccn12 [7-(4-Fluorobenzyl)-3-propyl-[1,2,4]triazolo[4,3-a]pyrazin-8(7H)-one]
IC50 [1]: 1200 nM | IC50 [2]: 360 nM | IC50 [3]: 970 nM

CCCc1nnc2c(=O)n(Cc3ccc(C)cc3)ccn12 [7-(4-Methylbenzyl)-3-propyl-[1,2,4]triazolo[4,3-a]pyrazin-8(7H)-one]
IC50 [1]: 930 nM | IC50 [2]: 780 nM | IC50 [3]: 1000 nM

COc1ccc(Cn2c(C)cn3c(C4CCOCC4)nnc3c2=O)cc1 [7-(4-methoxybenzyl)-6-methyl-3-(tetrahydro-2H-pyran-4-yl)-[1,2,4]triazolo[4,3-a]pyrazin-8(7H)-one]
IC50 [1]: 34 nM | IC50 [2]: 37 nM | IC50 [3]: 54 nM

CCCc1nnc2c(=O)n(Cc3ccc(OC)cc3)c(C)cn12 [7-(4-methoxybenzyl)-6-methyl-3-propyl-[1,2,4]triazolo[4,3-a]pyrazin-8(7H)-one]
IC50 [1]: 32 nM | IC50 [2]: 44 nM | IC50 [3]: 66 nM

CCCc1nnc2c(=O)n(CC3(C)CCCCC3)ccn12 [7-((1-methylcyclohexyl)methyl)-3-propyl-[1,2,4]triazolo[4,3-a]pyrazin-8(7H)-one]
IC50 [1]: 950 nM | IC50 [2]: 260 nM | IC50 [3]: 1300 nM

CCCc1nnc2c(=O)n(CC3CCC(F)(F)CC3)ccn12 [7-((4,4-difluorocyclohexyl)methyl)-3-propyl-[1,2,4]triazolo[4,3-a]pyrazin-8(7H)-one]
IC50 [1]: 420 nM | IC50 [2]: 760 nM | IC50 [3]: 450 nM

CCCc1nnc2c(=O)n(CC3CCC(C)(C)CC3)ccn12 [7-((4,4-dimethylcyclohexyl)methyl)-3-propyl-[1,2,4]triazolo[4,3-a]pyrazin-8(7H)-one]
IC50 [1]: 110 nM | IC50 [2]: 110 nM | IC50 [3]: 130 nM

CCCc1nnc2c(=O)n(CC3C4CC5CC(C4)CC3C5)ccn12 (stereo not drawn) [7-(((1r,3r,5r,7r)-adamantan-2-yl)methyl)-3-propyl-[1,2,4]triazolo[4,3-a]pyrazin-8(7H)-one]
IC50 [1]: 210 nM | IC50 [2]: 63 nM | IC50 [3]: 179 nM

CCCc1nnc2c(=O)n(CC34CC5CC(CC(C5)C3)C4)ccn12 [7-(((3r,5r,7r)-adamantan-1-yl)methyl)-3-propyl-[1,2,4]triazolo[4,3-a]pyrazin-8(7H)-one]
IC50 [1]: 210 nM | IC50 [2]: 63 nM | IC50 [3]: 180 nM

O=c1c2nnc(C3CCOCC3)n2ccn1CC1CCCCCC1 [7-(Cycloheptylmethyl)-3-(tetrahydro-2H-pyran-4-yl)-[1,2,4]triazolo[4,3-a]pyrazin-8(7H)-one]
IC50 [1]: 33 nM | IC50 [2]: 42 nM | IC50 [3]: 43 nM

CCCc1nnc2c(=O)n(CC3CCCCCC3)ccn12 [7-(Cycloheptylmethyl)-3-propyl-[1,2,4]triazolo[4,3-a]pyrazin-8(7H)-one]
IC50 [1]: 28 nM | IC50 [2]: 33 nM | IC50 [3]: 54 nM

O=c1c2nnc(C3CCOCC3)n2ccn1CC1CCCCC1 [7-(Cyclohexylmethyl)-3-(tetrahydro-2H-pyran-4-yl)-[1,2,4]triazolo[4,3-a]pyrazin-8(7H)-one]
IC50 [1]: 190 nM | IC50 [2]: 87 nM | IC50 [3]: 220 nM

CCCc1nnc2c(=O)n(CC3CCCCC3)ccn12 [7-(Cyclohexylmethyl)-3-propyl-[1,2,4]triazolo[4,3-a]pyrazin-8(7H)-one]
IC50 [1]: 81 nM | IC50 [2]: 47 nM | IC50 [3]: 96 nM

O=c1c2nnc(C3CCOCC3)n2ccn1CC1CCCC1 [7-(Cyclopentylmethyl)-3-(tetrahydro-2H-pyran-4-yl)-[1,2,4]triazolo[4,3-a]pyrazin-8(7H)-one]
IC50 [1]: 990 nM | IC50 [2]: 110 nM | IC50 [3]: 1100 nM

CCCc1nnc2c(=O)n(CC3CCCC3)ccn12 [7-(Cyclopentylmethyl)-3-propyl-[1,2,4]triazolo[4,3-a]pyrazin-8(7H)-one]
IC50 [1]: 820 nM | IC50 [2]: 95 nM | IC50 [3]: 840 nM

CCCc1nnc2c(=O)n(CC3CC3)ccn12 [7-(Cyclopropylmethyl)-3-propyl-[1,2,4]triazolo[4,3-a]pyrazin-8(7H)-one]
IC50 [1]: 2000 nM | IC50 [2]: 1300 nM | IC50 [3]: 3600 nM

CCCc1nnc2c(=O)n(CC3COC3)ccn12 [7-(Oxetan-3-ylmethyl)-3-propyl-[1,2,4]triazolo[4,3-a]pyrazin-8(7H)-one]
inhibition at 10 µM ([1]; 1 h, % inhibition of the enzyme at a concentration of 10 micro molar of the compound, read-out: PDE1B inhibition (nM or %): % inhib): 46% | PDE1C inhibition (nM or %): % inhib ([2]; % inhibition of the enzyme at a concentration of 10 micro molar of the compound): 57% | inhibition at 10 µM ([3]; 1 h, % inhibition of the enzyme at a concentration of 10 micro molar of the compound, read-out: PDE1A inhibition (nM or %): % inhib): 37%

Cc1ccccc1Cc1cn2c(C3CCOCC3)nnc2c(=O)n1CC1CCCCCC1 [7-(cycloheptylmethyl)-6-(2-methylbenzyl)-3-(tetrahydro-2H-pyran-4-yl)-[1,2,4]triazolo[4,3-a]pyrazin-8(7H)-one]
IC50 [1]: 39 nM | IC50 [2]: 14 nM | IC50 [3]: 25 nM

O=c1c2nnc(C3CCOCC3)n2cc(Cc2ccc(F)cc2)n1CC1CCCCCC1 [7-(cycloheptylmethyl)-6-(4-fluorobenzyl)-3-(tetrahydro-2H-pyran-4-yl)-[1,2,4]triazolo[4,3-a]pyrazin-8(7H)-one]
IC50 [1]: 9 nM | IC50 [2]: 4 nM | IC50 [3]: 3 nM

Cc1ccc(Cc2cn3c(C4CCOCC4)nnc3c(=O)n2CC2CCCCCC2)cc1 [7-(cycloheptylmethyl)-6-(4-methylbenzyl)-3-(tetrahydro-2H-pyran-4-yl)-[1,2,4]triazolo[4,3-a]pyrazin-8(7H)-one]
IC50 [1]: 1 nM | IC50 [2]: 0.37 nM | IC50 [3]: 0.86 nM

Cc1ccccc1Cc1cn2c(C3CCOCC3)nnc2c(=O)n1CC1CCCCC1 [7-(cyclohexylmethyl)-6-(2-methylbenzyl)-3-(tetrahydro-2H-pyran-4-yl)-[1,2,4]triazolo[4,3-a]pyrazin-8(7H)-one]
IC50 [1]: 44 nM | IC50 [2]: 10 nM | IC50 [3]: 41 nM

O=c1c2nnc(C3CCOCC3)n2cc(Cc2cccc(F)c2)n1CC1CCCCC1 [7-(cyclohexylmethyl)-6-(3-fluorobenzyl)-3-(tetrahydro-2H-pyran-4-yl)-[1,2,4]triazolo[4,3-a]pyrazin-8(7H)-one]
IC50 [1]: 22 nM | IC50 [2]: 6 nM | IC50 [3]: 24 nM

Cc1cccc(Cc2cn3c(C4CCOCC4)nnc3c(=O)n2CC2CCCCC2)c1 [7-(cyclohexylmethyl)-6-(3-methylbenzyl)-3-(tetrahydro-2H-pyran-4-yl)-[1,2,4]triazolo[4,3-a]pyrazin-8(7H)-one]
IC50 [1]: 3 nM | IC50 [2]: 1 nM | IC50 [3]: 2 nM

O=c1c2nnc(C3CCOCC3)n2cc(Cc2ccc(F)cc2)n1CC1CCCCC1 [7-(cyclohexylmethyl)-6-(4-fluorobenzyl)-3-(tetrahydro-2H-pyran-4-yl)-[1,2,4]triazolo[4,3-a]pyrazin-8(7H)-one]
IC50 [1]: 17 nM | IC50 [2]: 6 nM | IC50 [3]: 12 nM

Cc1ccc(Cc2cn3c(C4CCOCC4)nnc3c(=O)n2CC2CCCCC2)cc1 [7-(cyclohexylmethyl)-6-(4-methylbenzyl)-3-(tetrahydro-2H-pyran-4-yl)-[1,2,4]triazolo[4,3-a]pyrazin-8(7H)-one]
IC50 [1]: 2 nM | IC50 [2]: 1 nM | IC50 [3]: 1 nM

Cc1ccccc1Cc1cn2c(C3CCOCC3)nnc2c(=O)n1CC1CCCC1 [7-(cyclopentylmethyl)-6-(2-methylbenzyl)-3-(tetrahydro-2H-pyran-4-yl)-[1,2,4]triazolo[4,3-a]pyrazin-8(7H)-one]
IC50 [1]: 260 nM | IC50 [2]: 23 nM | IC50 [3]: 251 nM
